Tests used:
[1] = biological target: T1, Na+/K+-ATPase/Src complex (Sus scrofa, UniProt P05024); experiment: Src pY418 phosphorylation of the Na+/K+-ATPase/Src complex (Western blot); assay type: biochemical
T1 construct: Na+/K+-ATPase was purified from pig kidney outer medulla using the Jorgensen method; tissue Upstate Biotechnology (Src only); host or cells: pig kidney outer medulla (Na+/K+-ATPase)
Description: The Src kinase activity was assayed using a commercial kit (Haas et al., 2000). To determine how Na+/K+-ATPase affects Src kinase activity, the purified Src (4.5 U) was incubated with 5 μg of the purified Na+/K+-ATPase in the Src assay buffer for 30 min at room temperature. Afterward, both control Src or the Na+/K+-ATPase-bound Src were exposed to 10 μM ouabain and Src kinase activity was determined. In other experiments, the Src pY418 was measured by anti-pY418 antibody to indicate Src activation (Ma et al., 2000). To do so, the purified Src (4.5 U) was incubated with different amounts of the purified Na+/K+-ATPase or GST-Na+/K+ATPase constructs in phosphate-buffered saline (PBS) for 30 min at 37° C. Afterward, 2 mM ATP/Mg2+ was added. The reaction continued for 5 min at 37° C. and was stopped by addition of SDS sample buffer.
The purified Na+/K+-ATPase was solubilized in 1% Triton X-100 PBS and centrifuged at 100,000×g for 30 min. The supernatant was collected for the binding assay. GST-fusion proteins (5 μg) were conjugated on glutathione beads and incubated with the solubilized Na+/K+-ATPase in 500 μl PBS in the presence of 0.5% Triton X-100 at room temperature for 30 min. The beads were washed with the same buffer for four times. The bound Na+/K+ATPase was resolved on 10% SDS-PAGE and detected by Western blot. Reciprocal binding assay using GST-Na+/K+-ATPase constructs (5 μg) and purified Src lacking of first 85 amino acids (200 ng) or His-tagged Src constructs (100 ng) was done similarly. To test if native Na+/K+-ATPase binds Src, the above experiments were repeated in the absence of Triton X-100. To make the Na+/K+-ATPase/Src complex, 2-5 μg of the purified Na+/K+ATPase was incubated with 4.5 U of Src (˜10 ng) in PBS in the absence of Triton X-100 at room temperature for 30 min. The complex was either used for the experiments directly as indicated or collected by centrifugation at 100,000×g for 30 min.

[2] = system: Na+/K+-ATPase/Src complex; experiment: Effect of ouabain on binding of GST-Src constructs to Na+/K+-ATPase; details: 10 μM ouabain, 15 min
Description: FIG. 7C. A representative Western blot of four separate experiments showing that ouabain induced the release of the kinase domain from the Na+/K+-ATPase. […] Complexes were then pulled down on glutathione beads, washed three times, resuspended in 500 μl PBS, and exposed to 10 μM ouabain for 15 min. The beads were then washed for three more times using PBS, and the pulled down Na+/K+-ATPase was analyzed by Western blot using anti-α1 antibody
Because the inventors have shown that multiple domains are involved in Src interaction with the Na+/K+ATPase, the above findings led us to test if ouabain dissociates only a single (kinase) domain from the interacting Na+/K+-ATPase. […] Afterward, the complexes were exposed to 10 μM ouabain.

[3] = biological target: T2, Src-ECFP and EYFP-rat α1 in LLC-PK1 cells (Rattus norvegicus, UniProt P06685); experiment: FRET analysis in live cells; assay type: cell-based, pig; details: 100 μM ouabain, live LLC-PK1 cell
T2 construct: expressed in transfected cells; host or cells: LLC-PK1 (pig kidney)
Description: LLC-PK1 cells were cotransfected with Src-ECFP and EYFP-rat α1 and grown on a glass coverslip for 24 h. The coverslip was then mounted in a metal chamber and analyzed with a Leica DMIRE2 confocal microscope. The laser lines of 456 nm and 515 nm were used to illuminate fluorescence, and the emission intensities were recorded at 465-509 nm for Src-ECFP and 530-570 nm for EYFP-rat α1. The cell that expresses both Src-ECFP and EYFP-rat α1 was chosen and illuminated by only 456-nm laser. The cells express only Src-ECFP or EYFP-rat α1 were used for correction and determination of the laser intensity as well as the gain and offset settings. The emission intensities for both Src-ECFP and EYFP-rat α1 in selected membrane region was recorded at 465-509 nm (FECFP) and 530-570 nm (FEYEP), respectively. The FRET efficiency was reflected by the ratio of FEYFP/FECFP. After 50 s of recording, the same cell was exposed to ouabain and the recording was continued for indicated time.

LLC-PK1 cells = experiment: Recruitment of Src to the Na+/K+-ATPase signaling complex (co-immunoprecipitation); assay type: cell-based, pig; details: 1 μM ouabain 5 min, control cells
Description: FIG. 9C Inhibition of Src blocks ouabain-induced recruitment of Src to the Na+/K+-ATPase signaling complex. LLC-PK1 cells were pretreated with 1 μM PP2 or PP3 for 15 min and then exposed to 1 μM ouabain for 5 min. Cell lysates were immunoprecipitated and analyzed. Values are mean±SE of at least four independent experiments. * p<0.05.
Cells were lysed in RIPA buffer containing 1% Nonidet P40, 0.25% sodium deoxycholate, 150 mM NaCl, 1 mM EDTA, 1 mM phenylmethylsulfonyl fluoride, 1 mM sodium orthovanadate, 1 mM NaF, 10 μg/ml aprotinin, 10 μg/mlleupeptin, and 50 mM Tris-HCl (pH 7.4). Cell lysates were cleared by centrifugation at 16,000×g for […], and the supernatants (1 mg) were either immunoprecipitated with anti-α1 antibody or incubated with different GST-fusion proteins. The complexes were then pulled down by either protein G agarose or glutathione beads (Ma et al., 2000; Haas et al., 2002) and analyzed by Western blot.

Src and ERKs = details: cultured cells and animal models; cited from earlier work
[4] = 10 μM ouabain 15 min before centrifugation

C[C@@H]1O[C@@H](O[C@H]2C[C@@H](O)[C@]3(CO)[C@H]4[C@H](O)C[C@]5(C)[C@@H](C6=CC(=O)OC6)CC[C@]5(O)[C@@H]4CC[C@]3(O)C2)[C@H](O)[C@H](O)[C@H]1O [ouabain]
Src pY418 of cosedimented complex [1, 4]: increased the amount of Src pY418 | total Src cosedimented with the Na+/K+-ATPase [1, 4]: no effect on total Src cosedimented | Src pY418 of Na+/K+-ATPase/Src complex ([1]; different concentrations of ouabain, 2 mM ATP/Mg2+, 5 min): significantly increased the pY418 in a dose-dependent manner | Src pY418 of Na+/K+-ATPase/Src complex ([1]; ouabain in the presence of vanadate): still able to stimulate pY418 of Src | binding of Src kinase domain to the Na+/K+-ATPase [2]: dissociated the kinase domain | binding of full-length Src or SH3SH2 domain to the Na+/K+-ATPase [2]: no effect on the binding of either full-length Src or the SH3SH2 domain | FRET between Src-ECFP and EYFP-rat α1 [3]: reduction in FRET | Src coprecipitated with α1 (LLC-PK1 cells): increased coprecipitated Src | physiological concentrations able to activate Src and ERKs (Src and ERKs): 0.1-1 nM

From US9663561B2, “Methods of treatment of cancer using SRC-modulating peptides” (The University of Toledo, priority 2006, dated 2017)
